Results taken from PMC13266999, “Designing Antibiotics with Inherent Resistance to Efflux as a Strategy to Revive Discovery against Multidrug-Resistant Pathogens” (Journal of Medicinal Chemistry, 2026).
Converted amounts (≈) assume the structure as drawn. “And” between values parts separate entries of the source, which are not always exact repeats. Identical values can stand only once. Like-named read-outs stand apart in the source and are kept apart here.

Legend:
[1] = Plasma protein binding (RED); assay type: in vitro ADME; conditions: pH 7.4
Protocol: Plasma protein binding was measured using a Rapid Equilibrium Dialysis (RED) assay. Test compounds and control compounds were added to plasma at 10 μM and dialyzed against phosphate-buffered saline (PBS, pH 7.4) for 4 h at 37 °C. […] The percentage of drug bound to plasma proteins was calculated by comparing the analyte response in the plasma compartment with that in the buffer compartment.

Acinetobacter baumannii = assay: MIC (microbroth dilution); assay type: cell-based
Protocol: All bacteria were maintained on tryptic soy agar (TSA), except Streptococcus spp., which were maintained on Columbia agar plates containing 5% horse blood. All bacterial assays were carried out in tryptic soy broth (TSB), except for Streptococcus spp. which were grown in cation-adjusted Mueller Hinton broth containing 2.5% lysed horse blood. Bacteria were grown to stationary phase in liquid culture overnight, with shaking at 200 rpm, before being back diluted to the relevant starting concentration for each assay below. MICs were measured by the microbroth dilution method. […] Absorbance at OD600 was read on a CLARIOstar spectrophotometer (BMG Labtech) and the MIC was defined as the minimum concentration of compound where no visible growth was detected. The compounds were prepared as a DMSO stock and equivalent concentrations of DMSO had no effect on bacterial growth. MICs were also performed in the presence of the outer membrane permeator, polymyxin b nonapeptide (PMBN) following the same MIC method but with the following variation. The 2-fold dilution series of compound was prepared as above, then 50 μL of PMBN at a final concentration of 30 μg/mL was added to relevant wells, while 50 μL/well of blank media was added to the remaining wells. Bacteria were then added at 50 μL/well for a starting concentration as above. Thirty μg/mL of PMBN had no effect on bacterial growth. The MICs were read and defined as above. All animal procedures were performed by the contract research organization Pharmacology Discovery Services Taiwan in accordance with the Guide for the Care and Use of Laboratory Animals. The procedures were approved by the Institutional Ethics Committee of Pharmacology Discovery Services Taiwan, Ltd. (approval no. AB127662), in compliance with animal welfare legislation in Taiwan.

GR (h) = biological target: T1, GR (h) (Homo sapiens, UniProt P04150); assay: SafetyScreen44; conditions: agonist radioligand, specific binding, 1.0E-05 M
T1 construct: purchased Eurofins (SafetyScreen44)
Protocol: (§1) Off-target pharmacology was evaluated using the Eurofins SafetyScreen44 in vitro panel. […] Binding assays were performed using radioligand displacement, and enzyme or uptake assays measured inhibition of control activity using validated detection methods (scintillation counting, fluorimetry or photometry). Responses were expressed as percent inhibition of control binding or activity. Based on Eurofins interpretation guidelines, effects ≥50% were considered significant, effects between 25% and 50% weak to moderate, and effects <25% were not considered biologically relevant.

5-HT1A (h) = biological target: T2, 5-HT1A (h) (Homo sapiens, UniProt P08908); assay: SafetyScreen44; conditions: agonist radioligand, specific binding, 1.0E-05 M
T2 construct: purchased Eurofins (SafetyScreen44)
Protocol: as §1

D2S (h) = biological target: T3, D2S (h) (Homo sapiens, UniProt P14416); assay: SafetyScreen44; conditions: agonist radioligand, specific binding, 1.0E-05 M
T3 construct: purchased Eurofins (SafetyScreen44)
Protocol: as §1

5-HT2B (h) = biological target: T4, 5-HT2B (h) (Homo sapiens, UniProt P41595); assay: SafetyScreen44; conditions: agonist radioligand, specific binding, 1.0E-05 M
T4 construct: purchased Eurofins (SafetyScreen44)
Protocol: as §1

CB2 (h) = biological target: T5, CB2 (h) (Homo sapiens, UniProt P34972); assay: SafetyScreen44; conditions: agonist radioligand, specific binding, 1.0E-05 M
T5 construct: purchased Eurofins (SafetyScreen44)
Protocol: as §1

H1 (h) = biological target: T6, H1 (h) (Homo sapiens, UniProt P35367); assay: SafetyScreen44; conditions: antagonist radioligand, specific binding, 1.0E-05 M
T6 construct: purchased Eurofins (SafetyScreen44)
Protocol: as §1

5-HT2A (h) = biological target: T7, 5-HT2A (h) (Homo sapiens, UniProt P28223); assay: SafetyScreen44; conditions: agonist radioligand, specific binding, 1.0E-05 M
T7 construct: purchased Eurofins (SafetyScreen44)
Protocol: as §1

alpha 1A (h) = biological target: T8, alpha 1A (h) (Homo sapiens, UniProt P35348); assay: SafetyScreen44; conditions: antagonist radioligand, specific binding, 1.0E-05 M
T8 construct: purchased Eurofins (SafetyScreen44)
Protocol: as §1

D1 (h) = biological target: T9, D1 (h) (Homo sapiens, UniProt P21728); assay: SafetyScreen44; conditions: antagonist radioligand, specific binding, 1.0E-05 M
T9 construct: purchased Eurofins (SafetyScreen44)
Protocol: as §1

M1 (h) = biological target: T10, M1 (h) (Homo sapiens, UniProt P11229); assay: SafetyScreen44; conditions: antagonist radioligand, specific binding, 1.0E-05 M
T10 construct: purchased Eurofins (SafetyScreen44)
Protocol: as §1

M3 (h) = biological target: T11, M3 (h) (Homo sapiens, UniProt P20309); assay: SafetyScreen44; conditions: antagonist radioligand, specific binding, 1.0E-05 M
T11 construct: purchased Eurofins (SafetyScreen44)
Protocol: as §1

delta (DOP) (h) = biological target: T12, delta (DOP) (h) (Homo sapiens, UniProt P41143); assay: SafetyScreen44; conditions: agonist radioligand, specific binding, 1.0E-05 M
T12 construct: purchased Eurofins (SafetyScreen44)
Protocol: as §1

[2] = test system: Ca2+ channel (L, dihydropyridine site); assay: SafetyScreen44; conditions: antagonist radioligand, specific binding, 1.0E-05 M
Protocol: as §1

mu (MOP) (h) = biological target: T13, mu (MOP) (h) (Homo sapiens, UniProt P35372); assay: SafetyScreen44; conditions: agonist radioligand, specific binding, 1.0E-05 M
T13 construct: purchased Eurofins (SafetyScreen44)
Protocol: as §1

BZD (central) = assay: SafetyScreen44; conditions: agonist radioligand, specific binding, 1.0E-05 M
Protocol: as §1

A2A (h) = biological target: T14, A2A (h) (Homo sapiens, UniProt P29274); assay: SafetyScreen44; conditions: agonist radioligand, specific binding, 1.0E-05 M
T14 construct: purchased Eurofins (SafetyScreen44)
Protocol: as §1

[3] = biological target: T15, N neuronal alpha 4beta 2 (h) (Homo sapiens, UniProt P17787+P43681); assay: SafetyScreen44; conditions: agonist radioligand, specific binding, 1.0E-05 M
T15 construct: purchased Eurofins (SafetyScreen44)
Protocol: as §1

CCK1 (CCKA) (h) = biological target: T16, CCK1 (CCKA) (h) (Homo sapiens, UniProt P32238); assay: SafetyScreen44; conditions: agonist radioligand, specific binding, 1.0E-05 M
T16 construct: purchased Eurofins (SafetyScreen44)
Protocol: as §1

NMDA = assay: SafetyScreen44; conditions: antagonist radioligand, specific binding, 1.0E-05 M
Protocol: as §1

kappa (KOP) = biological target: T17, kappa (KOP) (Rattus norvegicus, UniProt P34975); assay: SafetyScreen44; conditions: agonist radioligand, specific binding, 1.0E-05 M
T17 construct: purchased Eurofins (SafetyScreen44)
Protocol: as §1

[4] = biological target: T18, norepinephrine transporter (h) (Homo sapiens, UniProt P23975); assay: SafetyScreen44; conditions: antagonist radioligand, specific binding, 1.0E-05 M
T18 construct: purchased Eurofins (SafetyScreen44)
Protocol: as §1

Na+ channel (site 2) = assay: SafetyScreen44; conditions: antagonist radioligand, specific binding, 1.0E-05 M
Protocol: as §1

[5] = Acinetobacter baumannii, ATCC17978, ATCC 17978, read-out: MIC
[6] = Acinetobacter baumannii, BAA1709, BAA-1709, read-out: MIC
[7] = Acinetobacter baumannii, BAA1710, BAA-1710 (AYE), read-out: MIC
[8] = Acinetobacter baumannii, NCTC10303, NCTC 10303, read-out: MIC
[9] = Acinetobacter baumannii, NCTC13302, NCTC 13302, oxa24, read-out: MIC
[10] = Acinetobacter baumannii, NCTC13424, NCTC 13424, oxa23, read-out: MIC
[11] = Acinetobacter baumannii, UKA1, oxa23, read-out: MIC
[12] = Acinetobacter baumannii, UKA2, Low resistance, read-out: MIC
[13] = Acinetobacter baumannii, UKA9, read-out: MIC
[14] = Acinetobacter baumannii, UKA12, oxa23, read-out: MIC
[15] = Acinetobacter baumannii, UKA13, oxa23, read-out: MIC
[16] = Acinetobacter baumannii, UKA15, oxa23, read-out: MIC
[17] = Acinetobacter baumannii, UKA19, read-out: MIC
[18] = Acinetobacter baumannii, W1, read-out: MIC

T14 sequence (P29274 whole entry): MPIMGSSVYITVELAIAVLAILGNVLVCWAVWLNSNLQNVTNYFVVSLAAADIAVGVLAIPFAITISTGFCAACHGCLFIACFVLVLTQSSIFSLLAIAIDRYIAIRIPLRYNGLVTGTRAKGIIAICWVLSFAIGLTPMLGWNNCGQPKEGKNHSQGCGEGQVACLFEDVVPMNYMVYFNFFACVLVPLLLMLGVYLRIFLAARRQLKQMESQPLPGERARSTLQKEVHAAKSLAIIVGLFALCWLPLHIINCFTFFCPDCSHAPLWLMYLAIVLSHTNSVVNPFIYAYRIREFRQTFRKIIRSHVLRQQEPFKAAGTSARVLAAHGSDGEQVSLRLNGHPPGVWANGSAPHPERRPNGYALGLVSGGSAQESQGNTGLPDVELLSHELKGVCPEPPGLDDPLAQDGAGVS
T5 sequence (P34972 whole entry): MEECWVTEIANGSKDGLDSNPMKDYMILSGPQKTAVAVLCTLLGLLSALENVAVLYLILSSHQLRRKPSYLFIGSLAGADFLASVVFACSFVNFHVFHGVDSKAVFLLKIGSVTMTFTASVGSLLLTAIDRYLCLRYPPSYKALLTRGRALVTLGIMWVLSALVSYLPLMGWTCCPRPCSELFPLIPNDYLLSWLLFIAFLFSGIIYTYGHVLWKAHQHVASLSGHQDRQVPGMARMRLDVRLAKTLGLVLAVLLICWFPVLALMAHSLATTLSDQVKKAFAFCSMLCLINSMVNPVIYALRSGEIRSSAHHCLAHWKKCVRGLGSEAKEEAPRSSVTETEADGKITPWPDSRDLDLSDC
T17 sequence (P34975 whole entry): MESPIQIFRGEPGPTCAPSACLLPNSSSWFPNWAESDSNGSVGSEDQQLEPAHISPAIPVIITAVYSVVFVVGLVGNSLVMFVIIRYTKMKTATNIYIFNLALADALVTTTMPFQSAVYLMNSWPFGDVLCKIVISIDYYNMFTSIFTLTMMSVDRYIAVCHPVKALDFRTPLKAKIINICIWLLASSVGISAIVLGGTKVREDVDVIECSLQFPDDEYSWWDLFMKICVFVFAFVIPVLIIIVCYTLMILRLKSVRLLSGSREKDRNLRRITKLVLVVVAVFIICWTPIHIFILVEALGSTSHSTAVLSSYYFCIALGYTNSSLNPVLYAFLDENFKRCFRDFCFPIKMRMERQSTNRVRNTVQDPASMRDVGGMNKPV
T9 sequence (P21728 whole entry): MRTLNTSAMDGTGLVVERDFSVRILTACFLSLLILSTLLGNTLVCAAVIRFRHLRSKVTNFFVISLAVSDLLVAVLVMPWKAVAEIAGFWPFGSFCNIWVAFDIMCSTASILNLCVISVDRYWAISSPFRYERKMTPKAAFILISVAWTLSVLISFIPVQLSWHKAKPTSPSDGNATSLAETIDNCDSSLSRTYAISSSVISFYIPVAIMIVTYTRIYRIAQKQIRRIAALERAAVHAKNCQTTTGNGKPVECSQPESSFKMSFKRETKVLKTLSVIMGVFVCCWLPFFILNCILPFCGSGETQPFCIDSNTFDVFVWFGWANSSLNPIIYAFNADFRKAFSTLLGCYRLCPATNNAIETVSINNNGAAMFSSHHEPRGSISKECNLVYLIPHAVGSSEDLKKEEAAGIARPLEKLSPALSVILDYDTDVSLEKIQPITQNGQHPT
T3 sequence (P14416 1-414 isoform P14416-2): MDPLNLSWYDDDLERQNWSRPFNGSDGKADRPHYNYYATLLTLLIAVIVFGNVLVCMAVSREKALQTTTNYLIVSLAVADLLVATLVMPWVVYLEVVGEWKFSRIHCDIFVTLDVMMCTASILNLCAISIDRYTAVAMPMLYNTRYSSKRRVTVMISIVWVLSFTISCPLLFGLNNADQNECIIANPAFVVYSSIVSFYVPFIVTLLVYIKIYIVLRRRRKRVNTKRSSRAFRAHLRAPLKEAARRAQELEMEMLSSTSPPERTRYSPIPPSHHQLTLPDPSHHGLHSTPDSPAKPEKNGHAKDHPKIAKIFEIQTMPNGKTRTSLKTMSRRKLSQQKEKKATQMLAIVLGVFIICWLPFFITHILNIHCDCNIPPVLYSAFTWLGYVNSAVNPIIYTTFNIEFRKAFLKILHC
T15 sequence (P43681 29-627 limits assumed): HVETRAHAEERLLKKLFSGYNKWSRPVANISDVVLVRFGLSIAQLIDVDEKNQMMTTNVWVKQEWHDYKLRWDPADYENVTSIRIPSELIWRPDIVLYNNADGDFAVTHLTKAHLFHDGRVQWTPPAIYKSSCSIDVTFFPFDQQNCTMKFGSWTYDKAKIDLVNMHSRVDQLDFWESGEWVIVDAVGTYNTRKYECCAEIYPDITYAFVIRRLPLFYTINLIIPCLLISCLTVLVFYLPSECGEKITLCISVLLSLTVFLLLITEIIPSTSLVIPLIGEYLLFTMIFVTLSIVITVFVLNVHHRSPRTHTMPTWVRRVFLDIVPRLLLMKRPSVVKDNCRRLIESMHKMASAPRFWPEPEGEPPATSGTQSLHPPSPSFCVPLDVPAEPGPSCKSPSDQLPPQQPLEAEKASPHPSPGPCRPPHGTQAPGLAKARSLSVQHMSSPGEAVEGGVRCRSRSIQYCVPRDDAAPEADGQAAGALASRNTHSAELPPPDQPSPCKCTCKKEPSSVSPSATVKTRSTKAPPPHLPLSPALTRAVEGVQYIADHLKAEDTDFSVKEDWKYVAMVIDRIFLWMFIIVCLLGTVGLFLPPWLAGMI
T15 sequence (P17787 26-502): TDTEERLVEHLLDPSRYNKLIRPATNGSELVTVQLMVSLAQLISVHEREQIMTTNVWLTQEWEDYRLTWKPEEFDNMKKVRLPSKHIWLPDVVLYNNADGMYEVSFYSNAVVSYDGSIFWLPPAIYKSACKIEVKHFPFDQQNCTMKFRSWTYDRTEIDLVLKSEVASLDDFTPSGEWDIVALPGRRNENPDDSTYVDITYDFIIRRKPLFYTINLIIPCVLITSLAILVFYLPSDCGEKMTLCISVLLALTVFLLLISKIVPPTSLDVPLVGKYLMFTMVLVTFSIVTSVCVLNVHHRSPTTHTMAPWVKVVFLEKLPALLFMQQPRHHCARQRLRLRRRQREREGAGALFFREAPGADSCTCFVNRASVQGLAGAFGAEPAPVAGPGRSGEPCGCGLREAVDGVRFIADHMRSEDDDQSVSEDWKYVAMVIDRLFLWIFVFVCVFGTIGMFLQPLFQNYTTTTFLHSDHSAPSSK
T1 sequence (P04150 whole entry): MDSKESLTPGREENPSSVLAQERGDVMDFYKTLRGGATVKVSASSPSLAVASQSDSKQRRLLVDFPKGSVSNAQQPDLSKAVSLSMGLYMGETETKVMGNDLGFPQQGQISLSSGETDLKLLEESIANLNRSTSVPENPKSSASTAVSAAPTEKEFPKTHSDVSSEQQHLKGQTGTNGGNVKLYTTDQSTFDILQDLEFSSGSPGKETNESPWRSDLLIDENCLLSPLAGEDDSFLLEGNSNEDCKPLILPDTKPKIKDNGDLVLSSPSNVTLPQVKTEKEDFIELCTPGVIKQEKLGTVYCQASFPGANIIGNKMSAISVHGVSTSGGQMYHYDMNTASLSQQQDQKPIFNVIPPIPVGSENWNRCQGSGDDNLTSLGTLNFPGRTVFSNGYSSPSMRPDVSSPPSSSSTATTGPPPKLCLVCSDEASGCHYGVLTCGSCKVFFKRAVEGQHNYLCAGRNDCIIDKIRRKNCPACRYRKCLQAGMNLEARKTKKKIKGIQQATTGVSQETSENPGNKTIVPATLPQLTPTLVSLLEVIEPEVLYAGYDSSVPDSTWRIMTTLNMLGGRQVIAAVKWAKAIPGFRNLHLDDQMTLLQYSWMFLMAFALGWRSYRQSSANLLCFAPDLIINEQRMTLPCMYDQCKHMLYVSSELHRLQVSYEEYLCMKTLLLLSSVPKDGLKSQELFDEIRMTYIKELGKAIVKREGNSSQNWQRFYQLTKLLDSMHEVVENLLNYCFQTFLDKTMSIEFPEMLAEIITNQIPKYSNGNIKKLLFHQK
T11 sequence (P20309 whole entry): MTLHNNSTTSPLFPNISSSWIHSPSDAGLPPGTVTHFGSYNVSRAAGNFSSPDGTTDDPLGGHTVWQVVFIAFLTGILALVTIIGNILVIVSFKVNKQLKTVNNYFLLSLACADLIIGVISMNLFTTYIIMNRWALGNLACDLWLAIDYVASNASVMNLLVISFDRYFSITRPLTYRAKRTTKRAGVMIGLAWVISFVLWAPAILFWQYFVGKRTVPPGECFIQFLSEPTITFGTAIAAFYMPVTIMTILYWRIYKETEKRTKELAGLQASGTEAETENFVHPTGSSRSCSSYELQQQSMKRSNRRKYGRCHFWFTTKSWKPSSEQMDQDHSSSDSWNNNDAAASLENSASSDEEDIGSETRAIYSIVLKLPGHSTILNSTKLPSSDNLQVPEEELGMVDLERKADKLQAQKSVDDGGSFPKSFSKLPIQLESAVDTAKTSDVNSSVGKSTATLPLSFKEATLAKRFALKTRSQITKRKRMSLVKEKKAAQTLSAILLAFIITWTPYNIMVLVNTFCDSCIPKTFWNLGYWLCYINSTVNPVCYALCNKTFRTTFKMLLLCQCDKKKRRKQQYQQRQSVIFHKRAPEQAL
T6 sequence (P35367 whole entry): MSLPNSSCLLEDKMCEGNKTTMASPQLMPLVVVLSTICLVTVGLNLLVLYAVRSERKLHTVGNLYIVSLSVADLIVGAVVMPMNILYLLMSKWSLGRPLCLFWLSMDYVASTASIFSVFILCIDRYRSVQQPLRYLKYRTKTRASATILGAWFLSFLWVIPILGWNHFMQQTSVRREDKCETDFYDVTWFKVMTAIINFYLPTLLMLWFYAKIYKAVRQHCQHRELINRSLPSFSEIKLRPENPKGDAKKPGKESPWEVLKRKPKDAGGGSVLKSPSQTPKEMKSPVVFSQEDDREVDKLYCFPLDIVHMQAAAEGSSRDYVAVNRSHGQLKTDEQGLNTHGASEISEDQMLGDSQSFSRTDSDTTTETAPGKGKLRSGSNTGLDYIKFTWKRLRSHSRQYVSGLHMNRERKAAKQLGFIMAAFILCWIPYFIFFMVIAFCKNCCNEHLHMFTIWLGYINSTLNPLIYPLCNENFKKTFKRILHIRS

Compound: Cc1cc(C)nc(N[C@@H]2CCN(c3c(F)cc4c(=O)c(C(=O)O)cn5c4c3OC[C@@H]5C)C2)n1 [Compound 50, (S)-10-((R)-3-((4,6-Dimethylpyrimidin-2-yl)amino)pyrrolidin-1-yl)-9-fluoro-3-methyl-7-oxo-2,3-dihydro-7H-[1,4]oxazino[2,3,4-ij]quinoline-6-carboxylic acid]
- fraction unbound at 4 h, 10 μM [1]: 0.28
- MIC (Acinetobacter baumannii; Acinetobacter baumannii, 86, oxa23, read-out: MIC): 8 µg/mL (≈ 17.6 µM)
- MIC (Acinetobacter baumannii; Acinetobacter baumannii, 96, oxa23, read-out: MIC): 4 µg/mL (≈ 8.82 µM)
- MIC (Acinetobacter baumannii; Acinetobacter baumannii, 113, oxa23, read-out: MIC): 4 µg/mL (≈ 8.82 µM)
- MIC (Acinetobacter baumannii; Acinetobacter baumannii, A118, read-out: MIC): ≤ 0.06 µg/mL
- MIC (Acinetobacter baumannii; Acinetobacter baumannii, A318, read-out: MIC): 16 µg/mL (≈ 35.3 µM)
- MIC (Acinetobacter baumannii; Acinetobacter baumannii, A319, read-out: MIC): 4 µg/mL (≈ 8.82 µM)
- MIC (Acinetobacter baumannii; Acinetobacter baumannii, A600 colR, read-out: MIC): 4 µg/mL (≈ 8.82 µM)
- MIC (Acinetobacter baumannii; Acinetobacter baumannii, A601 colS, read-out: MIC): 0.125 µg/mL (≈ 0.276 µM)
- MIC (Acinetobacter baumannii; [5]): 0.25 µg/mL (≈ 0.551 µM)
- MIC (Acinetobacter baumannii; [6]): 0.125 µg/mL (≈ 0.276 µM)
- MIC (Acinetobacter baumannii; [7]): 8 µg/mL (≈ 17.6 µM)
- MIC (Acinetobacter baumannii; [8]): 0.125 µg/mL (≈ 0.276 µM)
- MIC (Acinetobacter baumannii; [9]): 4 µg/mL (≈ 8.82 µM)
- MIC (Acinetobacter baumannii; [10]): > 64 µg/mL
- MIC (Acinetobacter baumannii; Acinetobacter baumannii, T strain, read-out: MIC): 8 µg/mL (≈ 17.6 µM)
- MIC (Acinetobacter baumannii; [11]): 4 µg/mL (≈ 8.82 µM)
- MIC (Acinetobacter baumannii; [12]): 8 µg/mL (≈ 17.6 µM)
- MIC (Acinetobacter baumannii; [13]): 0.125 µg/mL (≈ 0.276 µM)
- MIC (Acinetobacter baumannii; [14]): 4 µg/mL (≈ 8.82 µM)
- MIC (Acinetobacter baumannii; [15]): 4 µg/mL (≈ 8.82 µM)
- MIC (Acinetobacter baumannii; [16]): 4 µg/mL (≈ 8.82 µM)
- MIC (Acinetobacter baumannii; [17]): 0.5 µg/mL (≈ 1.1 µM)
- MIC (Acinetobacter baumannii; [18]): 8 µg/mL (≈ 17.6 µM)
- inhibition at 10 µM (GR (h)): 9.19%
- inhibition at 10 µM (5-HT1A (h)): -2.72%
- inhibition at 10 µM (D2S (h)): -3.93%
- inhibition at 10 µM (5-HT2B (h)): 9.78%
- inhibition at 10 µM (CB2 (h)): 0.988%
- inhibition at 10 µM (H1 (h)): 5.57%
- inhibition at 10 µM (5-HT2A (h)): 41.5%
- inhibition at 10 µM (alpha 1A (h)): 6.96%
- inhibition at 10 µM (D1 (h)): -5.66%
- inhibition at 10 µM (M1 (h)): 25.5%
- inhibition at 10 µM (M3 (h)): 3.56%
- inhibition at 10 µM (delta (DOP) (h)): 1.77%
- % Inhibition [2]: -7.1517%
- inhibition at 10 µM (mu (MOP) (h)): 0.499%
- % Inhibition (BZD (central)): 22.3569%
- % Inhibition (A2A (h)): 82.8099% and 82.8%
- inhibition at 10 µM [3]: 0.422%
- inhibition at 10 µM (CCK1 (CCKA) (h)): -39.6%
- % Inhibition (NMDA): -5.137%
- inhibition at 10 µM (kappa (KOP)): 20.1%
- inhibition at 10 µM [4]: 2.06%
- % Inhibition (Na+ channel (site 2)): -10.2569%

Compound: C[C@H]1COc2c(N3CCN(C)CC3)c(F)cc3c(=O)c(C(=O)O)cn1c23 [Levofloxacin, (S)-9-Fluoro-3-methyl-10-(4-methylpiperazin-1-yl)-7-oxo-2,3-dihydro-7H-[1,4]oxazino[2,3,4-ij]quinoline-6-carboxylic acid, reference compound]
- MIC (Acinetobacter baumannii; Acinetobacter baumannii, A118): ≤ 0.06 µg/mL
- MIC (Acinetobacter baumannii; [5]): 0.125 µg/mL (≈ 0.346 µM)
- MIC (Acinetobacter baumannii; [6]): 0.125 µg/mL (≈ 0.346 µM)
- MIC (Acinetobacter baumannii; [7]): 4 µg/mL (≈ 11.1 µM)
- MIC (Acinetobacter baumannii; Acinetobacter baumannii, BAA2093, BAA-2093, read-out: MIC): 0.06 µg/mL (≈ 0.166 µM)
- MIC (Acinetobacter baumannii; [8]): 0.125 µg/mL (≈ 0.346 µM)
- MIC (Acinetobacter baumannii; Acinetobacter baumannii, NCTC12156, NCTC 12156, read-out: MIC): 1 µg/mL (≈ 2.77 µM)
- MIC (Acinetobacter baumannii; [9]): 4 µg/mL (≈ 11.1 µM)
- MIC (Acinetobacter baumannii; [10]): 64 µg/mL (≈ 177 µM)
- MIC (Acinetobacter baumannii; [11]): 2 µg/mL (≈ 5.53 µM)
- MIC (Acinetobacter baumannii; [12]): 4 µg/mL (≈ 11.1 µM)
- MIC (Acinetobacter baumannii; [13]): 0.125 µg/mL (≈ 0.346 µM)
- MIC (Acinetobacter baumannii; [14]): 8 µg/mL (≈ 22.1 µM)
- MIC (Acinetobacter baumannii; [15]): 16 µg/mL (≈ 44.3 µM)
- MIC (Acinetobacter baumannii; [16]): 4 µg/mL (≈ 11.1 µM)
- MIC (Acinetobacter baumannii; [17]): 1 µg/mL (≈ 2.77 µM)
- MIC (Acinetobacter baumannii; [18]): 8 µg/mL (≈ 22.1 µM)
- MIC50 (Acinetobacter baumannii; Acinetobacter baumannii, panel of 25 A. baumannii strains): 4 µg/mL (≈ 11.1 µM)
